Data: patent US5972946A, “Acetamide derivative, process for preparing the same, and a pharmaceutical composition containing the same” (Dainippon Pharmaceutical Co., Ltd., priority 1995, dated 1999)

biological target: peripheral (ω3) benzodiazepine (BZ) receptor (Rattus norvegicus, UniProt P16257); assay: BZω3 (peripheral-type) benzodiazepine receptor binding assay
Procedure: Experiment 1: Central (ω1, ω2) and peripheral (ω3) benzodiazepine (BZ) receptor binding assays
BZω1 and BZω2 receptor binding assays were carried out according to the method of Stephens, D. N. et al. [cf.
Receptor membrane fractions for ω1, ω2 and ω3 were prepared from the cerebellum (ω1), spinal cord (ω1) or kidney (ω3) in 7-8 week old male rats of Wistar strain by the procedure described below.
After the cerebellum or spinal cord was homogenized with 20 volumes of ice-cold 50 mM Tris-citrate buffer (pH 7.1), the homogenate was centrifuged for 15 minutes at 40,000 g. The pellet obtained was washed 4 times by the same procedure, frozen and stored for 24 hours at -60° C. The resulting pellet, after being thawed, washed with the buffer and centrifuged, was suspended in the buffer I for the binding assay (50 mM Tris-HCl buffer containing 120 mM NaCl, 5 mM KCl, 2 mM CaCl2 and 1 mM MgCl2 ; pH 7.4) and the suspension thus obtained (containing 1 g wet tissue/40 ml) was used for the BZω1 and BZω2 receptor binding assays. On the other hand, the kidney was homogenized with 20 volumes of the ice-cold buffer II for the binding assay (50 mM Na--K phosphate buffer containing 100 mM NaCl; pH 7.4), filtered through 4 sheets of gauze, and centrifuged for 20 minutes at 40,000 g. The pellet obtained was suspended in the buffer II and the suspension (containing 1 g wet tissue/100 ml) was used for the binding assay as BZω3 receptor membrane source.
Flumazenil (final concentration: 0.3 nM for (ω1 and 1 nM for ω2) and flunitrazepam (final concentration: 10 μM) were used for the BZω1 or BZω2 receptor binding assays as the isotope-labeled and unlabeled ligands, respectively. For the BZω3 receptor binding assay, [^3 H] 4'-chlorodiazepam (7-chloro-1,3-dihydro-1-methyl-5-(4-chlorophenyl)-2H-1,4-benzodiazepin-2-one) (final concentration: 0.5 nM) and diazepam (final concentration: 100 μM) were used as the isotope-labeled and unlabeled ligands, respectively. Incubation was performed for 30 minutes at 37° C. in the BZω1 or BZω2 receptor binding assays, and for 150 minutes at 0° C. in the BZω3 receptor binding assay. The BZω1 or BZω2 receptor binding assays were carried out in the presence of bicuculline (final concentration: 100 μM).
The binding assay was performed by the following procedure. After adding each test compound at certain known concentrations, a [^3 H] ligand and the buffer I or II to each test tube, each assay was started by addition of membrane preparation (total volume of 1 ml). After incubation, the assay was terminated by filtration with suction through a Whatman GF/B glass fiber filter using a cell harvester (Brandel, USA). The filters were rapidly washed 3 times with 5 ml of ice-cold 50 mM Tris-HCl buffer (pH 7.7) for ω1 and ω2, or the buffer II forω3, and transferred to scintillation vials containing 10 ml liquid scintillation cocktail (ACS-II, Amersham, USA). After a few hours, retained radioactivity was counted by a liquid scintillation spectrometer. Specific binding of [^3 H] ligands was calculated as the difference between amounts of radioactivity bound in the presence and absence of excess unlabeled ligands.

Structure (SMILES) | IC50 [nM]
CN(CC(=O)N(C)c1ccc(Cl)cc1)c1nc(-c2ccccc2)nc2c1CCCC2 [Example 111] | 2.05
CCCN(CCC)C(=O)C1CCCN1c1nc(-c2ccccc2)nc2c1CCCC2 (centres unmarked) [Example 119, 1-(5,6,7,8-Tetrahydro-2-phenyl-4-quinazolinyl)-N,N-dipropyl-2-pyrrolidinecarboxamide] | 1.45
CCCN(CCC)C(=O)C(CO)Nc1nc(-c2ccccc2)nc(C)c1C (centres unmarked) [Example 69, 3-hydroxy-2-(5,6-dimethyl-2-phenyl-4-pyrimidinylamino)-N,N-dipropylpropanamide] | 2.75
CN(C(=O)CNc1nc(-c2ccccc2)nc2c1CCCC2)c1ccc(Cl)cc1 [Example 108] | 1.21
CCCN(CCC)C(=O)C(CO)Nc1nc(-c2ccccc2)nc2c1CCCC2 (centres unmarked) [Example 118, 3-hydroxy-2-(5,6,7,8-tetrahydro-2-phenyl-4-quinazolinylamino)-N,N-dipropylpropanamide] | 1.07
CCCN(CCC)C(=O)CNc1nc(-c2ccc(Cl)cc2)nc2c1CCCC2 [Example 104] | 3.44
CCCN(CCC)C(=O)COc1nc(-c2ccc(F)cc2)nc2c1CCCC2 [Example 128, 2-[2-(4-fluorophenyl)-5,6,7,8-tetrahydro-4-quinazolinyloxy]-N,N-dipropylacetamide] | 0.79
CCCN(CCC)C(=O)CNc1nc(-c2ccccc2)ncc1CO [Example 127, 2-(5-hydroxymethyl-2-phenyl-4-pyrimidinylamino)-N,N-dipropylacetamide] | 4.35
CCCCN(CCCC)C(=O)CNc1nc(-c2ccc(Cl)cc2)nc(C)c1C [Example 15] | 3.86
COc1ccc(-c2nc(C)c(C)c(NCC(=O)N(C)c3ccccc3)n2)cc1 [Example 26] | 0.28
CCCN(CCC)C(=O)CNc1nc(-c2ccccc2)nc2c1CCCC2 [Example 102, 2-(5,6,7,8-tetrahydro-2-phenyl-4-quinazolinylamino)-N,N-dipropylacetamide] | 3.31
Cc1nc(-c2ccc(Cl)cc2)nc(NCC(=O)N2CC(C)OC(C)C2)c1C (centres unmarked) [Example 68, 4-[2-(4-Chlorophenyl)-5,6-dimethyl-4-pyrimidinylamino]acetyl-2,6-dimethylmorpholine] | 2.19
CCCN(CCC)C(=O)COc1nc(-c2ccc(Cl)cc2)nc2c1CCCC2 [Example 131] | 0.89
CCCN(CCC)C(=O)CNc1nc(-c2ccccc2)nc(-c2ccccc2)c1C [Example 97] | 2.27
CCCN(CCC)C(=O)CNc1nc(-c2ccccc2)nc(CC)c1C [Example 85, 2-(6-ethyl-5-methyl-2-phenyl-4-pyrimidinylamino)-N,N-dipropylacetamide] | 0.18
CCc1c(C)nc(-c2ccccc2)nc1NCC(=O)N(C)c1ccc(Cl)cc1 [Example 84, N-(4-chlorophenyl)-2-(5-ethyl-6-methyl-2-phenyl-4-pyrimidinylamino)-N-methylacetamide] | 2.04

Structure (SMILES) | IC50 [nM]
CN(C(=O)CNc1nc(-c2ccc(Cl)cc2)nc2c1CCCC2)c1ccc(Cl)cc1 [Example 109] | 2.09
CCCN(CCC)C(=O)CN(C)c1nc(-c2ccccc2)nc(C)c1C [Example 70, 2-[methyl-(5,6-dimethyl-2-phenyl-4-pyrimidinyl)amino]-N,N-dipropylacetamide] | 1.12
Cc1nc(-c2ccc(C(F)(F)F)cc2)nc(NCC(=O)N(C)c2ccccc2)c1C [Example 27] | 0.11
CCN(C(=O)COc1nc(-c2ccc(C(F)(F)F)cc2)nc(C)c1C)c1ccccc1 [Example 155] | 0.76
CCCN(CCC)C(=O)CN(C)c1nc(-c2ccccc2)nc2c1CCCC2 [Example 110] | 1.99
CCCCN(CCCC)C(=O)CNc1nc(-c2ccc(Cl)cc2)nc2c1CCCC2 [Example 107] | 4.23
Cc1nc(-c2ccccc2)nc(N(C)CC(=O)N(C)c2ccc(Cl)cc2)c1C [Example 76] | 1.33
CN(C(=O)CNc1nc(-c2ccccc2)ncc1N)c1ccccc1 [Example 124, 2-(5-amino-2-phenyl-4-pyrimidinylamino)-N-methyl-N-phenylacetamide] | 5.35
CCCCN(CCCC)C(=O)CNc1nc(-c2ccc(F)cc2)nc2c1CCCC2 [Example 106] | 4.24
COc1ccc(N(C)C(=O)CNc2nc(-c3ccccc3)nc(C)c2C)cc1 [Example 41] | 2.53
CCCN(CCC)C(=O)CNc1nc(-c2ccc(F)cc2)nc2c1CCCC2 [Example 103] | 2.9
CCCCN(C(=O)CNc1nc(-c2ccccc2)nc(C)c1C)c1ccccc1 [Example 57] | 5.39
CN(C(=O)C1CCCN1c1nc(-c2ccccc2)nc2c1CCCC2)c1ccc(Cl)cc1 (centres unmarked) [Example 120, N-(4-Chlorophenyl)-1-(5,6,7,8-tetrahydro-2-phenyl-4-quinazolinyl)-N-methyl-2-pyrrolidinecarboxamide 1/4 hydrate] | 1.63
CCN(C(=O)CNc1nc(-c2ccc(C(F)(F)F)cc2)nc(C)c1C)c1ccccc1 [Example 49] | 0.23
CCN(C(=O)CNc1nc(-c2ccccc2)nc(C)c1C)c1ccc(Cl)cc1 [Example 51] | 0.32
CCCCN(CCCC)C(=O)CNc1nc(-c2ccccc2)nc2c1CCCC2 [Example 105] | 4.18

Further lines, results first:

IC50 [nM] | Structure (SMILES)
2 | CCCN(CCC)C(=O)COc1nc(-c2ccccc2)nc(-c2ccccc2)c1C [Example 159]
1.4 | Cc1nc(-c2ccccc2)nc(OCC(=O)N(C)c2ccccc2)c1C [Example 143]
0.53 | CCCN(CCC)C(=O)COc1nc(-c2ccc(F)cc2)nc(C)c1C [Example 138]
2.2 | CCCCN(CCCC)C(=O)COc1nc(-c2ccccc2)nc2c1CCCC2 [Example 133]
0.82 | CN(C(=O)COc1nc(-c2ccccc2)nc2c1CCCC2)c1ccc(F)cc1 [Example 184]
4.57 | CCCN(C(=O)COc1nc(-c2ccccc2)nc2c1CCCC2)c1ccccc1 [Example 182]
5.4 | CCCN(CCC)C(=O)COc1cc(C)nc(-c2ccccc2)n1 [Example 166, 2-(6-methyl-2-phenyl-4-pyrimidinyloxy)-N,N-dipropylacetamide]
0.29 | CCN(C(=O)COc1nc(-c2ccc([N+](=O)[O-])cc2)nc(C)c1C)c1ccccc1 [Example 164, N-ethyl-2-[5,6-dimethyl-2-(4-nitrophenyl)-4-pyrimidinyloxy]-N-phenylacetamide]
0.58 | CCN(C(=O)COc1nc(-c2ccccc2)nc(C)c1C)c1ccccc1 [Example 151]
0.52 | Cc1nc(-c2ccc(C(F)(F)F)cc2)nc(OCC(=O)N(C)c2ccccc2)c1C [Example 147]
1.05 | CCCN(CCC)C(=O)COc1nc(-c2ccccc2)nc2c1CCCC2 [Example 161]
0.93 | CCCN(CCC)C(=O)COc1nc(-c2ccc(Cl)cc2)nc(C)c1C [Example 137]
0.99 | Cc1nc(-c2ccccc2)nc(OCC(=O)N2CC(C)CC(C)C2)c1C (centres unmarked) [Example 170, 3,5-dimethyl-1-(5,6-dimethyl-2-phenyl-4-pyrimidinyloxy)acetylpiperidine]
2.64 | CN(C(=O)COc1nc(-c2ccc(Cl)cc2)nc2c1CCCC2)c1ccc(Cl)cc1 [Example 163]
1.65 | CN(C(=O)COc1nc(-c2ccccc2)nc2c1CCCC2)c1ccccc1 [Example 180]
4.96 | CCc1c(C)nc(-c2ccccc2)nc1OCC(=O)N(C)c1ccc(Cl)cc1 [Example 156]
9.71 | CN(C(=O)COc1nc(-c2ccccc2)nc2c1CCCC2)c1cccc(Cl)c1 [Example 187]
1.14 | Cc1nc(-c2ccccc2)nc(OCC(=O)N(C)c2ccc(Cl)cc2)c1C [Example 149]

IC50 [nM] | Structure (SMILES)
0.99 | CCCN(CCC)C(=O)COc1nc(-c2ccccc2)nc(C)c1Br [Example 168, 2-(5-bromo-6-methyl-2-phenyl-4-pyrimidinyloxy)-N,N-dipropylacetamide]
1.6 | Cc1nc(-c2cccc(Cl)c2)nc(OCC(=O)N(C)c2ccccc2)c1C [Example 145]
0.79 | CCCN(CCC)C(=O)COc1nc(-c2ccccc2)nc(C)c1Cl [Example 167, 2-(5-chloro-6-methyl-2-phenyl-4-pyrimidinyloxy)-N,N-dipropylacetamide]
4.07 | CCCN(CCC)C(=O)COc1cc(-c2ccccc2)nc(-c2ccccc2)n1 [Example 158]
3.07 | CCCCN(CCCC)C(=O)COc1nc(-c2ccc(F)cc2)nc2c1CCCC2 [Example 134]
8.75 | O=C(COc1nc(-c2ccccc2)nc2c1CCCC2)Nc1ccc(F)cc1 [Example 183]
1.15 | CCCN(CCC)C(=O)C(C)Oc1nc(-c2ccccc2)nc2c1CCCC2 (centres unmarked) [Example 169, 2-(5,6,7,8-tetrahydro-2-phenyl-4-quinazolinyloxy)-N,N-dipropylpropanamide]
1.61 | CN(C(=O)COc1nc(-c2ccc(Cl)cc2)nc2c1CCCC2)c1ccccc1 [Example 181]
1.19 | CN(C(=O)COc1nc(-c2ccccc2)nc2c1CCCC2)c1ccc(Cl)cc1 [Example 162]
3.17 | CCCCN(CCCC)C(=O)COc1nc(-c2ccc(Cl)cc2)nc2c1CCCC2 [Example 135]
0.11 | CCCN(CCC)C(=O)COc1nc(-c2ccc(C(F)(F)F)cc2)nc(C)c1C [Example 141]
0.08 | CCCN(CCC)C(=O)COc1nc(-c2ccc([N+](=O)[O-])cc2)nc(C)c1C [Example 142]
2 | CC1CN(C(=O)COc2nc(-c3ccc(Cl)cc3)nc3c2CCCC3)CC(C)O1 (centres unmarked) [Example 195, 4-[2-(4-Chlorophenyl)-5,6,7,8-tetrahydro-4-quinazolinyloxy] acetyl-2,6-dimethylmorpholine]
5.24 | CN(Cc1ccccc1)C(=O)COc1nc(-c2ccccc2)nc2c1CCCC2 [Example 188]
1.9 | CCN(CC)C(=O)COc1nc(-c2ccccc2)nc(C)c1C [Example 175]
4 | Cc1nc(-c2ccccc2)nc(OCC(=O)N(CC2CC2)c2ccccc2)c1C [Example 190, N-cyclopropylmethyl-2-(5,6-dimethyl-2-phenyl-4-pyrimidinyloxy)-N-phenylacetamide]
4.3 | CCCN(CCC)C(=O)COc1cc(C(F)(F)F)nc(-c2ccccc2)n1 [Example 160]
4.3 | CCN(CC)C(=O)COc1nc(-c2ccccc2)nc2c1CCCC2 [Example 179]
